A short description of the test: Bronchodialatory activity in guinea pig trachea assessed as reduction of histamine-induced contracture. In kind it is functional, tissue-based, Cavia porcellus.
As to `CO[C@@]12CCN(C)C[C@H]1[C@H](c1ccc3ccccc3c1)C(C#N)=C(N)O2`, the IC50 is 24.2 µM.

As to `COc1ccc([C@@H]2C(C#N)=C(N)O[C@]3(OC)CCN(Cc4ccccc4)C[C@@H]23)cc1`, the IC50 was 23.1 µM.

Consider `CO[C@@]12CCN(Cc3ccccc3)C[C@H]1[C@H](c1ccc(C)cc1)C(C#N)=C(N)O2`, for which the IC50 stood at 27.1 µM.

For `CCCN1CC[C@@]2(OC)OC(N)=C(C#N)[C@@H](c3ccc(C)cc3)[C@@H]2C1`, the IC50 came to 21 µM.

As for `CO[C@@]12CCN(Cc3ccccc3)C[C@H]1[C@H](c1ccc(Cl)cc1Cl)C(C#N)=C(N)O2`, the 50% inhibitory concentration (IC50) was determined as 18.3 µM.

Consider `CO[C@@]12CCN(Cc3ccccc3)C[C@H]1[C@H](c1ccc3ccccc3c1)C(C#N)=C(N)O2`, for which the 50% inhibitory concentration (IC50) worked out at 23.4 µM.

As to `COc1ccc([C@@H]2C(C#N)=C(N)O[C@]3(OC)CCN(C)C[C@@H]23)cc1OC`, the IC50 amounted to 19.1 µM.

Regarding `CO[C@@]12CCN(C)C[C@H]1[C@H](c1ccc(C)cc1)C(C#N)=C(N)O2`, the IC50 was found to be 13.2 µM.

With `CCCN1CC[C@@]2(OC)OC(N)=C(C#N)[C@@H](c3ccccc3)[C@@H]2C1`, the IC50 came out at 20.7 µM.

For `CO[C@@]12CCN(Cc3ccccc3)C[C@H]1[C@H](c1ccc(N3CCOCC3)cc1)C(C#N)=C(N)O2`, the IC50 turned out to be 25.4 µM.

On to `CCCN1CC[C@@]2(OC)OC(N)=C(C#N)[C@@H](c3ccc(Br)cc3)[C@@H]2C1`, for which the IC50 was found to be 19.4 µM.

`CO[C@@]12CCN(C)C[C@H]1[C@H](c1ccc(Br)cc1)C(C#N)=C(N)O2`: the IC50 was determined as 7.9 µM.

As to `CO[C@@]12CCN(C)C[C@H]1[C@H](c1ccc(-c3cccs3)cc1)C(C#N)=C(N)O2`, the IC50 was 13.8 µM.

Turning to `CCCN1CC[C@@]2(OC)OC(N)=C(C#N)[C@@H](c3ccc(OC)c(OC)c3)[C@@H]2C1`, the IC50 stood at 24.7 µM.

Take `CO[C@@]12CCN(Cc3ccccc3)C[C@H]1[C@H](c1ccc(F)cc1)C(C#N)=C(N)O2`: the IC50 stood at 17.2 µM.

For the compound `CCCN1CC[C@@]2(OC)OC(N)=C(C#N)[C@@H](c3ccc(F)cc3)[C@@H]2C1`, the IC50 turned out to be 29.6 µM.

Regarding `CO[C@@]12CCN(C)C[C@H]1[C@H](c1ccc(Cl)cc1Cl)C(C#N)=C(N)O2`, the IC50 is 14.9 µM.

Regarding `CCN1CC[C@@]2(OC)OC(N)=C(C#N)[C@@H](c3ccc4ccccc4c3)[C@@H]2C1`, the IC50 was determined as 28.3 µM.

As for `CCN1CC[C@@]2(OC)OC(N)=C(C#N)[C@@H](c3ccccc3)[C@@H]2C1`, the IC50 was determined as 23.4 µM.

As for `CCCN1CC[C@@]2(OC)OC(N)=C(C#N)[C@@H](c3ccc(Cl)cc3)[C@@H]2C1`, the 50% inhibitory concentration (IC50) was found to be 30.3 µM.

In the case of `CCN1CC[C@@]2(OC)OC(N)=C(C#N)[C@@H](c3ccc(OC)c(OC)c3)[C@@H]2C1`, the 50% inhibitory concentration (IC50) came out at 23.2 µM.

Regarding `CCN1CC[C@@]2(OC)OC(N)=C(C#N)[C@@H](c3ccc(Br)cc3)[C@@H]2C1`, the IC50 was determined as 13.2 µM.

As to `CO[C@@]12CCN(C)C[C@H]1[C@H](c1ccccc1)C(C#N)=C(N)O2`, the IC50 was found to be 19.8 µM.

Regarding `CCCN1CC[C@@]2(OC)OC(N)=C(C#N)[C@@H](c3ccc4ccccc4c3)[C@@H]2C1`, the half-maximal inhibitory concentration (IC50) was 37.1 µM.

Consider `CO[C@@]12CCN(C)C[C@H]1[C@H](c1ccc(Cl)cc1)C(C#N)=C(N)O2`, for which the IC50 is 10.5 µM.

Consider `CCN1CC[C@@]2(OC)OC(N)=C(C#N)[C@@H](c3ccc(Cl)cc3)[C@@H]2C1`, for which the IC50 came to 14.9 µM.

Consider `CCCN1CC[C@@]2(OC)OC(N)=C(C#N)[C@@H](c3ccc(OC)cc3)[C@@H]2C1`, for which the IC50 is 21.3 µM.

As to `CO[C@@]12CCN(C)C[C@H]1[C@H](c1ccc(F)cc1)C(C#N)=C(N)O2`, the 50% inhibitory concentration (IC50) came to 19.4 µM.

As for `CO[C@@]12CCN(Cc3ccccc3)C[C@H]1[C@H](c1ccc(Cl)cc1)C(C#N)=C(N)O2`, the IC50 worked out at 18.5 µM.

For the compound `CO[C@@]12CCN(Cc3ccccc3)C[C@H]1[C@H](c1ccccc1)C(C#N)=C(N)O2`, the IC50 is 22.6 µM.

In the case of `CCN1CC[C@@]2(OC)OC(N)=C(C#N)[C@@H](c3ccc(N4CCCCC4)cc3)[C@@H]2C1`, the IC50 turned out to be 13.8 µM.

For `CCN1CC[C@@]2(OC)OC(N)=C(C#N)[C@@H](c3ccc(-c4cccs4)cc3)[C@@H]2C1`, the IC50 was 19.8 µM.

As for `CCN1CC[C@@]2(OC)OC(N)=C(C#N)[C@@H](c3ccc(OC)cc3)[C@@H]2C1`, the IC50 stood at 25.5 µM.

Turning to `Cn1c(=O)c2nc[nH]c2n(C)c1=O` [THEOPHYLLINE], the 50% inhibitory concentration (IC50) was 19.9 µM.

Take `CCCN1CC[C@@]2(OC)OC(N)=C(C#N)[C@@H](c3ccc(Cl)cc3Cl)[C@@H]2C1`: the IC50 is 35.5 µM.

Regarding `CCN1CC[C@@]2(OC)OC(N)=C(C#N)[C@@H](c3ccc(C)cc3)[C@@H]2C1`, the IC50 was 16.8 µM.

Take `CO[C@@]12CCN(C)C[C@H]1[C@H](c1ccc(N3CCOCC3)cc1)C(C#N)=C(N)O2`: the 50% inhibitory concentration (IC50) amounted to 20.2 µM.

`CCN1CC[C@@]2(OC)OC(N)=C(C#N)[C@@H](c3ccc(Cl)cc3Cl)[C@@H]2C1`: the IC50 stood at 27.1 µM.

With `CO[C@@]12CCN(C)C[C@H]1[C@H](c1ccc(N3CCCCC3)cc1)C(C#N)=C(N)O2`, the half-inhibitory concentration (IC50) worked out at 19 µM.

In the case of `COc1ccc([C@@H]2C(C#N)=C(N)O[C@]3(OC)CCN(C)C[C@@H]23)cc1`, the IC50 stood at 23.1 µM.

`CCN1CC[C@@]2(OC)OC(N)=C(C#N)[C@@H](c3ccc(N4CCOCC4)cc3)[C@@H]2C1`: the IC50 was determined as 28.7 µM.

In the case of `COc1ccc([C@@H]2C(C#N)=C(N)O[C@]3(OC)CCN(Cc4ccccc4)C[C@@H]23)cc1OC`, the IC50 is 21.9 µM.

Usually IC50 stands for the concentration that inhibits the measured activity by half.

(Values after ChEMBL document CHEMBL3351662, “Synthesis, bioassay, and QSAR study of bronchodilatory active 4H-pyrano[3,2-c]pyridine-3-carbonitriles” (Eur J Med Chem, 2015).)
